Source: ChEMBL document CHEMBL1201862, “PubChem BioAssay data set” (2004)
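Assay format: 96-well plates, 48-hour exposure. GI50 is the concentration that inhibits growth by half.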 The source made the active and inactive calls. Rule as the data show it: active = GI50 up to about 1.1 µM and inactive = higher.

Legend:
Assay in all cases: DTP human tumour cell line panel, 48 h
KM12 = system: KM12
XF498 = system: XF498
CAKI-1 = system: CAKI-1
DU-145 = system: DU-145
Malme-3M = system: Malme-3M
SNB-78 = system: SNB-78
KM-20L2 = system: KM-20L2
HCC 2998 = system: HCC 2998
DMS-273 = system: DMS-273
MCF7 = system: MCF7
SF-539 = system: SF-539
SK-MEL-28 = system: SK-MEL-28
Hs-578T = system: Hs-578T
MDA-MB-231 = system: MDA-MB-231
HOP-62 = system: HOP-62
786-0 = system: 786-0
UACC-257 = system: UACC-257
NCI-H23 = system: NCI-H23
RPMI-8226 = system: RPMI-8226
A498 = system: A498
MDA-N = system: MDA-N
OVCAR-5 = system: OVCAR-5
SF-295 = system: SF-295
EKVX = system: EKVX
UACC-62 = system: UACC-62
UO-31 = system: UO-31
SK-MEL-2 = system: SK-MEL-2
NCI/ADR-RES = system: NCI/ADR-RES
NCI-H460 = system: NCI-H460
ACHN = system: ACHN
OVCAR-3 = system: OVCAR-3
SNB-75 = system: SNB-75
SW-620 = system: SW-620
DLD-1 = system: DLD-1
SF-268 = system: SF-268
MOLT-4 = system: MOLT-4
LOX IMVI = system: LOX IMVI
LXFL 529 = system: LXFL 529
HOP-18 = system: HOP-18
M19-MEL = system: M19-MEL
HT-29 = system: HT-29
M14 = system: M14
A549 = system: A549
RXF 631 = system: RXF 631
IGROV-1 = system: IGROV-1
SK-OV-3 = system: SK-OV-3
PC-3 = system: PC-3
COLO 205 = system: COLO 205
NCI-H522 = system: NCI-H522
RXF 393 = system: RXF 393
SK-MEL-5 = system: SK-MEL-5
OVCAR-4 = system: OVCAR-4
TK-10 = system: TK-10
NCI-H226 = system: NCI-H226
SR = system: SR
HCT-15 = system: HCT-15
HL-60 = system: HL-60
OVCAR-8 = system: OVCAR-8
SN12C = system: SN12C
K562 = system: K562
SNB-19 = system: SNB-19
U-251 = system: U-251
MDA-MB-435 = system: MDA-MB-435
HCT-116 = system: HCT-116
HOP-92 = system: HOP-92
CCRF-CEM = system: CCRF-CEM
BT-549 = system: BT-549
DMS-114 = system: DMS-114

COCC(C#N)NC1CC(OC2CC(O)(C(=O)CO)Cc3c(O)c4c(c(O)c32)C(=O)c2c(OC)cccc2C4=O)OC(C)C1O (stereo not drawn)
GI50 (KM12): 103 nM (active) | GI50 (XF498): 42.7 nM (active) | GI50 (CAKI-1): 38.8 nM (active) | GI50 (DU-145): 41.2 nM (active) | GI50 (Malme-3M): 34.4 nM (active) | GI50 (SNB-78): 235 nM (active) | GI50 (KM-20L2): 191 nM (active) | GI50 (HCC 2998): 145 nM (active) | GI50 (DMS-273): 26.6 nM (active) | GI50 (MCF7): < 10 nM (active) | GI50 (SF-539): 41.5 nM (active) | GI50 (SK-MEL-28): 156 nM (active) | GI50 (Hs-578T): 161 nM (active) | GI50 (MDA-MB-231): 112 nM (active) | GI50 (HOP-62): 28.7 nM (active) | GI50 (786-0): 43.4 nM (active) | GI50 (UACC-257): 91 nM (active) | GI50 (NCI-H23): 59.2 nM (active) | GI50 (RPMI-8226): 28.2 nM (active) | GI50 (A498): 38.3 nM (active) | GI50 (MDA-N): 97.5 nM (active) | GI50 (OVCAR-5): 247 nM (active) | GI50 (SF-295): 96.6 nM (active) | GI50 (EKVX): 500 nM (active) | GI50 (UACC-62): 57.4 nM (active) | GI50 (UO-31): 442 nM (active) | GI50 (SK-MEL-2): 136 nM (active) | GI50 (NCI/ADR-RES): 1820 nM (inactive) | GI50 (NCI-H460): < 10 nM (active) | GI50 (ACHN): 58.1 nM (active) | GI50 (OVCAR-3): 153 nM (active) | GI50 (SNB-75): 56.4 nM (active) | GI50 (SW-620): 33 nM (active) | GI50 (DLD-1): 200 nM (active) | GI50 (SF-268): 41.9 nM (active) | GI50 (MOLT-4): < 13.7 nM (active) | GI50 (LOX IMVI): 29.2 nM (active) | GI50 (LXFL 529): 83 nM (active) | GI50 (HOP-18): 125 nM (active) | GI50 (M19-MEL): 52.8 nM (active) | GI50 (HT-29): 151 nM (active) | GI50 (M14): 134 nM (active) | GI50 (A549): 52.1 nM (active) | GI50 (RXF 631): 71.6 nM (active) | GI50 (IGROV-1): 40.4 nM (active) | GI50 (SK-OV-3): 86.9 nM (active) | GI50 (PC-3): 94.2 nM (active) | GI50 (COLO 205): 48.3 nM (active) | GI50 (NCI-H522): 32.1 nM (active) | GI50 (RXF 393): 177 nM (active) | GI50 (SK-MEL-5): 30.3 nM (active) | GI50 (OVCAR-4): 282 nM (active) | GI50 (TK-10): 190 nM (active) | GI50 (NCI-H226): 27.8 nM (active) | GI50 (SR): < 11.1 nM (active) | GI50 (HCT-15): 802 nM | GI50 (HL-60): 19.3 nM (active) | GI50 (OVCAR-8): 67.6 nM (active) | GI50 (SN12C): 42.2 nM (active) | GI50 (K562): 41.5 nM (active) | GI50 (SNB-19): 42.7 nM (active) | GI50 (U-251): 28.6 nM (active) | GI50 (MDA-MB-435): 108 nM (active) | GI50 (HCT-116): 38.5 nM (active) | GI50 (HOP-92): 393 nM (active) | GI50 (CCRF-CEM): 20.2 nM (active) | GI50 (BT-549): 138 nM (active) | GI50 (DMS-114): 36.1 nM (active)
